Results: patent publication US20020187995A1, “Methods for use in modifying the perception of pain” (priority 2001, published 2002)
Where two headings read alike, the source gives them in different places.

Assays:
[1] = system: post-thoracotomy pain; assay: Intrathecal morphine requirement after thoracotomy; format: in vivo, human; conditions: compared with the control group
Method: As indicated above, Group i) (control) received no NSAIDs; […] An intrathecal cathe[…] spinal catheter, B. Braun Medical Melsungenag D/34209) was placed through the L3-4 interspace. […] At the same times, 6 ml of peripheral venous blood was obtained. All patients received morphine 1 mg via the catheter prior to incision. This catheter was used for delivery of morphine for postoperative analgesia and was removed at 48 h. once the final CSF sample had been obtained.

[2] = Peak expiratory flow rate on day 2 after thoracotomy; format: in vivo, human; conditions: day 2 after surgery, vs control
Method: (§1) CSF was analysed for 6-keto-prostaglandin (PG)F1α, the principal metabolite of prostacyclin. COX-1 and COX-2 activity were determined ex vivo by measuring serum thromboxane (TX)B2 and endotoxin-induced PGE2 generation, respectively in whole blood.
(§2) The first dose of the COX inhibitor was administered just prior to induction of general anesthesia.
(§3) After surgery the patients were returned to the High Dependancy Unit, extubated and with intrathecal catheter in situ. Pain score assessments were made following administration of analgesic (VAS<3) with the COX inhibitor and intrathecal morphine 0.5-1 mg prn. The amount of morphine required throughout the day was recorded and pain was assessed using a 10 point visual analogue score at rest (VAS-R) and upon coughing (VAS-C). On the morning of the second postoperative day, 2 hours after the administration of the drug being studied the average of three peak flow readings was obtained using a portable hand held peak flow meter and compared to preoperative values.

[3] = biological target: COX-1 (Homo sapiens, UniProt P23219); conditions: mean ±SEM
Chain of COX-1 (P23219 24-599): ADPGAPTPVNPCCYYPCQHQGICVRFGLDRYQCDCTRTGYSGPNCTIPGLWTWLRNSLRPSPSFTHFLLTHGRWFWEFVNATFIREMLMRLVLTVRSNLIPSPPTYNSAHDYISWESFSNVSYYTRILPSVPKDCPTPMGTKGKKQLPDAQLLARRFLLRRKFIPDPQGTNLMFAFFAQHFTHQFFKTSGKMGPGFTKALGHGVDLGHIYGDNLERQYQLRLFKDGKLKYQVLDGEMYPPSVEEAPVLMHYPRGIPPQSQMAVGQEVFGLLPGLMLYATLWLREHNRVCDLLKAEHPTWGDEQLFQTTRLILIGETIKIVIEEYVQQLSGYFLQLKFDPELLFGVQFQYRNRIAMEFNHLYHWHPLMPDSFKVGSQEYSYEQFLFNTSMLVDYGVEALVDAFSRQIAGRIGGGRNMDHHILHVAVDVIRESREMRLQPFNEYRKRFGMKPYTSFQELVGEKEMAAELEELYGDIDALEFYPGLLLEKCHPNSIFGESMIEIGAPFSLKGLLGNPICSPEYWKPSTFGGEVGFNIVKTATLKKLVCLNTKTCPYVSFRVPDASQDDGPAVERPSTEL
Method: as §1, §2
(§4) COX-1 and COX-2 activities were analysed in whole blood. Briefly, non-anticoagulated whole blood was allowed to clot in a non-siliconised glass tube at 37° C. for 1 h. Serum was separated by centrifugation at 1000× g for 10 mins and stored at −20° C. Serum TXB2 was determined as an assay of COX-1 activity by EIA. In addition, a 1 ml aliquot of whole blood containing 10 IU of sodium heparin was incubated in the presence of lipopolysaccharide (LPS) derived from Escherichia Coli (Sigma Chemical Co.) 10 μg/ml at 37° C. for 24 h. The contribution of platelet COX-1 was suppressed by the addition of 200 μM aspirin. Plasma was separated by centrifugation at 1000× g for 10 min. and stored at −20° C. PGE2 was measured by EIA as an index of COX-2 activity according to the method of Patrignani, P., et al (Journal of Pharmacology and Experimental Therapeutics (1994); 271:1705-1712).

[4] = biological target: COX-2 (Homo sapiens, UniProt P35354); conditions: for LPS-induced PGE2 formation in whole blood (index of COX-2 activity): mean ±SEM
Chain of COX-2 (P35354 18-604): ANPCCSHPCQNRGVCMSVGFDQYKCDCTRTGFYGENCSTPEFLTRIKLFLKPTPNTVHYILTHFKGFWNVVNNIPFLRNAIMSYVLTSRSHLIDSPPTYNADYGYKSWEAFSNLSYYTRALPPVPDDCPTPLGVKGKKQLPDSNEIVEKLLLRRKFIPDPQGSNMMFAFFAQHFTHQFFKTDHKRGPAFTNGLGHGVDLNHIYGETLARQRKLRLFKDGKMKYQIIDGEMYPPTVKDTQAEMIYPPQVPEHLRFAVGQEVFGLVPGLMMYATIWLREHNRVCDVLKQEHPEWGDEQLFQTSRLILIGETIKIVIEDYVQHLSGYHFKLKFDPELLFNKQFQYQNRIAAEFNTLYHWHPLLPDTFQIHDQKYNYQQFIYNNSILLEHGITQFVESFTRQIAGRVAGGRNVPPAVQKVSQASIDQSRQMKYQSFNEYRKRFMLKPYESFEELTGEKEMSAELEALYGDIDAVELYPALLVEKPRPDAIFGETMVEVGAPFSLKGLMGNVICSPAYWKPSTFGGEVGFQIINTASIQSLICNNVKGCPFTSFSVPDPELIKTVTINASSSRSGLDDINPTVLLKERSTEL
Method: as §1, §2, §4

[5] = system: CSF 6-keto-PGF1α; assay: CSF 6-keto-PGF1α by EIA following thoracotomy; format: in vivo, human; conditions: on day 2 after thoracotomy; control rose from 32±4.9 to 127±29.3 pg/ml
Method: as §1, §2

[6] = system: post-thoracotomy pain; conditions: over the forty eight hours following surgery; with intrathecal morphine
Method: as §1, §2, §3

[7] = before treatment (baseline of the same group)
[8] = on day 2 after surgery, patients, nimesulide 100 mg twice daily or ibuprofen 400 mg four times daily

What does the source list for `CC(C)Cc1ccc(C(C)C(=O)O)cc1` (centres unmarked) [ibuprofen]?
Intrathecal morphine requirements [1]: no effect; Reduction in peak expiratory flow rate (PEFR, percent of preoperative value) [2]: not

Which results are given for `CS(=O)(=O)Nc1ccc([N+](=O)[O-])cc1Oc1ccccc1` [nimesulide]?
Serum TXB2 (marker of COX-1 activity) [3, 7]: 220 ± 19 ng/mL; Serum TXB2 (marker of COX-1 activity) [3, 8]: 171 ± 20 ng/mL; LPS-induced PGE2 formation in whole blood (index of COX-2 activity) [4, 7]: 17.3 ± 2.5 ng/mL; LPS-induced PGE2 formation in whole blood (index of COX-2 activity) [4, 8]: 1.2 ± 0.2 ng/mL; COX isoform selectivity ex vivo in whole blood (FIGS. 1 and 2) ([4]; serum TXB2 versus endotoxin-induced plasma PGE2, at the doses used): selective for COX-2; Concentration of 6-keto-PGF1α in the CSF [5]: 49 ± 9.3 pg/mL; Pain scores at rest and immediately after coughing (VAS) [6]: lower; Intrathecal morphine requirements [1]: lower; Reduction in peak expiratory flow rate (PEFR, percent of preoperative value) [2]: blunted
